Columns and labels:
[1] = system: Plasmodium falciparum; test: Antimalarial activity against Plasmodium falciparum Dd2 incubated for 72 hours by DAPI-staining based confocal imaging analysis; format: functional, organism-based; details: Dd2, 72 h
[2] = Therapeutic ratio of IC50 for HEK293 cells to IC50 for Plasmodium falciparum 3D7; format: cell-based; details: human, HEK293 cells versus Plasmodium falciparum 3D7; read-out: Ratio IC50
[3] = system: Plasmodium falciparum; test: Antimalarial activity against Plasmodium falciparum 3D7 incubated for 72 hours by DAPI-staining based confocal imaging analysis; format: functional, organism-based
[4] = (§1) Cytotoxicity against HEK293 cells at 20 uM by alamar blue assay; format: cell-based; details: human, HEK293 cells; read-out: INH
[5] = system: Plasmodium falciparum; test: Antimalarial activity against Plasmodium falciparum 3D7 at 20 uM incubated for 72 hours by DAPI-staining based confocal imaging analysis; format: functional; details: 3D7, 72 h
[6] = system: HEK293; test: as §1; format: cell-based; details: human, hek293, 20 µM
[7] = system: Plasmodium falciparum; test: Antimalarial activity against Plasmodium falciparum Dd2 at 20 uM incubated for 72 hours by DAPI-staining based confocal imaging analysis; format: functional; details: Dd2, 72 h
[8] = Cytotoxicity against HEK293 cells at 10 uM by alamar blue assay; format: cell-based; details: human, read-out: INH
[9] = system: HEK293; test: Cytotoxicity against HEK293 cells by alamar blue assay; format: cell-based; details: Homo sapiens
[10] = Plasmodium falciparum, 3D7, 72 h, read-out: IC50

SMILES | IC50 [1] [nM] | selectivity ratio [2] | IC50 [3, 10] [nM] | Activity [6] | further results
COc1cccc(/C=C/c2ccc(C(=O)Nc3cc(C(=O)Nc4nc(C(=O)NCCCN(C)C)c(CCC(C)C)s4)n(C)c3)cc2)c1 | 1130 | > 36 | 544 |  | cytotoxicity at 20 µM [4]: 86%
CN(C)CCCNC(=O)c1cc(NC(=O)c2cc(NC(=O)c3cc(NC(=N)c4ccccc4)cn3C)cn2C)cn1C |  |  |  | Non-toxic | inhibition at 20 µM [5]: 90%; inhibition at 20 µM [7]: 63%
CSc1ccc(/C=C/c2ccc3cc(C(=O)Nc4cc(C(=O)Nc5cc(C(=O)NCCN6CCOCC6)n(C)c5)n(C)c4)ccc3n2)cc1 | 1900 |  | 1770 | Non-toxic | 
CC(=N)Nc1cc(C(=O)Nc2cc(C(=O)Nc3cc(C(=O)NCCCN(C)C)n(C)c3)n(C)c2)n(C)c1 | 6460 |  | 6420 | Non-toxic | 
CC(C)CCc1sc(NC(=O)c2cc(NC(=O)c3ccc(/C=C/c4ccc5ccccc5n4)cc3)cn2C)nc1C(=O)NCCN1CCOCC1 | 241 |  | 103 | Non-toxic | 
COc1ccc(/C=C/c2ccc3cc(C(=O)Nc4cc(C(=O)Nc5cc(C(=O)NCCN6CCOCC6)n(C)c5)n(C)c4)ccc3n2)cc1 | 2990 |  | 1950 | Non-toxic | 
Cn1cc(NC(=O)c2cc(NC(=O)c3cc(NC(=O)c4cc5ccccc5cn4)cn3C)cn2C)cc1C(=O)NCCCN1CCOCC1 | 5990 |  | 7860 | Non-toxic | 
Cn1cc(NC(=O)c2cc(NC(=O)c3ccc(/C=C/c4ccc5nsnc5c4)cc3)cn2C)cc1C(=O)NCCN1CCOCC1 | 5140 |  | 6040 | Non-toxic | 
CN(C)CCCNC(=O)c1cc(NC(=O)c2cc(NC(=O)c3cc4ccccc4cn3)cn2C)cn1C | 4350 |  | 4700 | Non-toxic | 
COc1cccc(C(=N)Nc2cc(C(=O)Nc3cc(C(=O)Nc4cc(C(=O)NCCCN(C)C)n(C)c4)n(C(C)C)c3)n(C)c2)c1 |  |  | 9980 | Non-toxic | inhibition at 20 µM [7]: 100%
Cn1cc(NC(=O)c2cc(NC(=O)c3cc(NC(=O)c4ccc(Cl)cc4Cl)cn3C)cn2C)cc1C(=O)NCCCN1CCOCC1 | 3620 |  | 3040 | Non-toxic | 
Cn1cc(NC(=O)c2cc(NC(=O)c3ccc(/C=C/c4ccc(C(F)(F)F)cc4)cc3)cn2C)cc1C(=O)NCCN1CCOCC1 | 3690 |  | 3570 | Non-toxic | 
Cn1cc(NC(=O)c2cc(NC(=O)c3ccc(/C=C/c4ccc5nonc5c4)cc3)cn2C)cc1C(=O)NCCN1CCOCC1 | 2300 |  | 1930 | Non-toxic | 
Cn1cc(NC(=O)c2cc(NC(=O)c3cc(NC(=O)c4ccc(Cl)cc4Cl)cn3C)cn2C)cc1C(=O)NCCN1CCOCC1 | 3070 |  | 1800 | Non-toxic | 
Cn1cc(NC(=O)c2cc(NC(=O)c3ccc(/C=C/c4cccc(F)c4)cc3)cn2C)cc1C(=O)NCCN1CCOCC1 | 2750 |  | 3320 | Non-toxic | 
Cn1cc(NC(=O)c2cc(NC(=O)c3cc4ccccc4cn3)cn2C)cc1C(=O)NCCN1CCOCC1 | 3270 |  | 4310 | Non-toxic | 
Cn1cc(NC(=O)c2cc(NC(=O)c3cc(NC=O)cn3C)cn2C)cc1C(=O)NCCN1CCOCC1 |  |  |  | Non-toxic | inhibition at 20 µM [5]: 98%; inhibition at 20 µM [7]: 25%
CC(C)CCc1sc(NC(=O)c2cc(NC(=O)c3cc(/C=C/c4ccc([N+](=O)[O-])cc4)cn3C)cn2C)nc1C(=O)NCCN1CCOCC1 | 289 | > 60 | 322 |  | cytotoxicity at 20 µM [4]: 54%

SMILES | IC50 [1] [nM] | selectivity ratio [2] | IC50 [3, 10] [nM] | Activity [6] | further results
Cn1cc(NC(=O)c2cc(NC(=O)c3ccc(/C=C/c4ccc(F)cc4)cc3)cn2C)cc1C(=O)NCCN1CCOCC1 | 3340 |  | 3300 | Non-toxic | 
CC(C)n1cc(NC(=O)c2cc(NC(=O)c3cnc(Cl)c(Cl)c3)cn2C)cc1C(=O)Nc1cc(C(=O)NCCCN(C)C)n(C)c1 |  |  |  | Non-toxic | inhibition at 20 µM [5]: 75%; inhibition at 20 µM [7]: 65%
CN(C)CCCNC(=O)c1cc(NC(=O)c2cc(NC(=O)c3cc(NC(=N)c4cc5ccccc5cn4)cn3C)cn2C)cn1C | 2770 |  | 3380 |  | cytotoxicity at 10 µM [8]: 40%
COc1ccnc(C(=N)Nc2cc(C(=O)Nc3cc(C(=O)Nc4nc(C(=O)NCCN5CCOCC5)c(C(C)C)s4)n(C)c3)n(C)c2)c1 | 2970 |  | 2730 | Non-toxic | 
CN(C)CCCn1cnc(NC(=O)c2cc(NC(=O)c3cc(NC(=O)c4cc5ccccc5cn4)cn3C)cn2C)c1.O=C(O)C(F)(F)F | 4480 |  | 5490 | Non-toxic | 
CC(C)c1sc(NC(=O)c2cc(NC(=O)c3cc(NC(=O)c4cc5ccccc5cn4)cn3C)cn2C)nc1C(=O)NCCN1CCOCC1 | 636 | > 42 | 469 | Non-toxic | 
CC(C)CCc1sc(NC(=O)c2cc(NC(=O)c3cc4ccccc4cn3)cn2C)nc1C(=O)NCCCN(C)C | 2000 |  | 1410 | Non-toxic | 
Cn1cc(NC(=O)c2cc(NC(=O)c3ccc(/C=C/c4ccncc4)cc3)cn2C)cc1C(=O)NCCN1CCOCC1 | 923 | > 26 | 780 |  | cytotoxicity at 20 µM [4]: 63%
COc1cccc(/C=C/c2cccc(C(=O)Nc3cc(C(=O)Nc4nc(C(=O)NCCCN(C)C)c(CCC(C)C)s4)n(C)c3)c2)c1 | 1150 | 6.7 | 868 |  | IC50 [9]: 5800 nM
CC(C)CCc1sc(NC(=O)c2cc(NC(=O)c3ccc(/C=C/c4ccc5ccccc5c4)cc3)cn2C)nc1C(=O)NCCN1CCOCC1 | 588 | > 50 | 390 | Non-toxic | 
CC(C)CCc1sc(NC(=O)c2cc(NC(=O)c3cc(/C=C/c4ccc([N+](=O)[O-])cc4)cn3C)cn2C)nc1C(=O)NCCCN(C)C | 339 | > 14 | 350 |  | cytotoxicity at 20 µM [4]: 60%
COc1cccc(C(=N)Nc2cc(C(=O)Nc3cc(C(=O)Nc4cc(C(=O)NCCCN5CCOCC5)n(C)c4)n(C)c3)n(C)c2)c1 |  |  |  | Non-toxic | IC50 [3]: Not Active; inhibition at 20 µM [7]: 35%
Cn1cc(NC(=O)c2cc(NC(=O)c3ccc(/C=C/c4nc5ccccc5o4)cc3)cn2C)cc1C(=O)NCCN1CCOCC1 | 38 | > 514 | 39 | Non-toxic | 
C[C@@H]1CC[C@H]2[C@@H](C)C(=O)O[C@@H]3O[C@@]4(C)CC[C@@H]1[C@]32OO4 [ARTEMISININ] | 9 | > 10000 |  |  | IC50 [9]: > 120000 nM
CCN(CC)CCCC(C)Nc1ccnc2cc(Cl)ccc12 (configuration not stated) [CHLOROQUINE] |  |  |  |  | IC50 [9]: > 120000 nM
COc1ccc(C[C@H](N)C(=O)N[C@H]2[C@@H](O)[C@H](n3cnc4c(N(C)C)ncnc43)O[C@@H]2CO)cc1 [PUROMYCIN] | 62 | 6 | 60 |  | 
CCc1nc(N)nc(N)c1-c1ccc(Cl)cc1 [PYRIMETHAMINE] | > 120 | 955 | 8.45 |  | IC50 [9]: 8070 nM

— ChEMBL document CHEMBL3813603, “Selective anti-malarial minor groove binders” (Bioorg Med Chem Lett, 2016)
